Data on two compounds can be found in patent US20220062258A1, “Heterocyclic derivatives” (Merck Patent GmbH, priority 2019, published 2022).

Assay [1] addresses T1, MetAP-2 (Homo sapiens, UniProt P50579). Description: Degradation of MetAP-2 in HCT116 cells (Western blot, MetAp2/GAPDH signal). It counts as cell-based. The conditions noted are these: for Signal MetAp2/GAPDH normalized to untreated (DMSO): 24 hrs, HTC116 cells, <1 means degradation; for reduction of MetAP-2 protein: after 24 h. The arrangement: endogenous in cells; host or cells: HCT116. The procedure: See scans below. […] The initial MetAP-2 degradation results were obtained after 24 h incubation of the compounds in three different concentrations (0.1; 1; 10 μM), cell lysis, SDS-PAGE separation, blotting and antibody aided detection.
Comparison of MetAP2 protein levels in HTC116 cells after compound treatments at different concentrations and time points. As control, DMSO was used and its values set as “1”. MetAp2 values <1 means degradation.
2. Exemplary Testing of the Compound
HCT116 cells were sown in 6-well plates. Pipette 1 mL fresh medium to every well and incubate for at least 1 h (37° C., 5% CO2, 95% rH).
Harvest and count cells in Vi-Cell. Equinr. 70198475 Adjust cell concentration to 0.35e^6 cells/mL and add 1 mL of cell suspension (total 0,35e^6 cells/well).
Incubate cells for 24 hours (37° C., 5% CO2, 95% rH)
HCT116: 24 h: ˜50% confluent before treatment
Compounds will be thawed the first time, stock: 10 mM; final concentration: 10 μM & 1 μM & 0.1 μM
Treatment with DMSO based solution with Digital Dispenser: HCT116 platte 2A1.jpg_meta.xml • create new dispensing protocol for compound • apply name of test compound and its stock concentration (in mM) for testing • 3×1:10 dilution series • final 0.3% DMSO, DMSO normalization for every well • shaking after compound/DMSO addition
Incubate cells for further 24 hours (37° C., 5% C02, 95% rH)
HCT116: 70-80% confluent before lysis • after incubation cells were lysed with RIPA lysis buffer including Halt™
all steps performed on ice or at 4° C. • aspirate supernatant from cells • wash cells twice with 2.0 mL ice cold PBS buffer • aspirate supernatant from cells after each washing step • lyse cells with 100 μL Ripa lysis buffer per well • scrape cells with cell scraper and transfer lysates to Eppendorf Cups • incubate for 15 min on ice • centrifuge […] at 13000×g and 4° C. • transfer supernatants to fresh Eppendorf cups • removal of 20 μL lysate for BCA assay • aliquot and freeze at −20° C.
Determination of protein concentration of lysates with BCA Protein Assay Kit. BSA supplied with the kit is 2 mg/mL.
Dilute the standard (Stock BSA concentration=2 mg/mL) in a 96 well plate: Samples were run 1:4. Dilute in lysing buffer, lysing buffer alone was run to determine the background from detergents in the assay.
BCA reagent: Dilute Reagent A and Reagent B in a 1:50 ratio. To 9.8 mL A add 200 μL B.
Assay Procedure: Pipette 5 μL/well of standard or samples to 96 wells (see plate layout). Samples were run in duplicate. Blanks=5 μL/well PBS or 5 μL/well lysing buffer. Add 100 μL/well of the prepared BCA reagent. Tap plate to mix or shake for 1-2 min on the Eppendorf mixer. Incubate at 37° C. for 30 min.
Read the OD at 562 nm. Plate was read on EnVision 2104 Multilabel Reader (Perkin Elmer, Equipment Number 70160330) last verification of instrument 17.08.2017 (once a year) (A25/531). AEH181012_BCA.csv
In EXCEL the duplicates were averaged and the average background PBS was subtracted for the standard curve.
A trend line was created, the intercept (b) was set at 0. The R^2 should be >0.950 for acceptable results. The lysate buffer blank was subtracted from the test values and the averaged, background-corrected O.D. values were used with the equation to calculate mg/ml and then were corrected for the dilution factor for the final mg/mL value. Only results from OD values within the range of the standard curve are acceptable. Values outside of the standard curve range are ignored. BCA AEH00350 Berechnung.xlsx
6. Sample Calculation and Preparation • thaw lysates of AEH00350 on ice • calculate sample volume for Western Blot loading 10 μg total protein/13 μL per slot: • dilute samples with lysis buffer and 10× reducing agent & 4×LDS buffer to 10 μg. • heat them at 70° C. for 10 min and 1000 rmp
7. […]

The target in assay [2] is T1, MetAP-2. The description is as above. Type of assay: cell-based. Further details: endogenous in cells; host or cells: HCT116. The conditions noted are these: for Signal MetAp2/GAPDH normalized to untreated (DMSO): HTC116 cells, <1 means degradation.

T1 sequence (P50579 whole entry): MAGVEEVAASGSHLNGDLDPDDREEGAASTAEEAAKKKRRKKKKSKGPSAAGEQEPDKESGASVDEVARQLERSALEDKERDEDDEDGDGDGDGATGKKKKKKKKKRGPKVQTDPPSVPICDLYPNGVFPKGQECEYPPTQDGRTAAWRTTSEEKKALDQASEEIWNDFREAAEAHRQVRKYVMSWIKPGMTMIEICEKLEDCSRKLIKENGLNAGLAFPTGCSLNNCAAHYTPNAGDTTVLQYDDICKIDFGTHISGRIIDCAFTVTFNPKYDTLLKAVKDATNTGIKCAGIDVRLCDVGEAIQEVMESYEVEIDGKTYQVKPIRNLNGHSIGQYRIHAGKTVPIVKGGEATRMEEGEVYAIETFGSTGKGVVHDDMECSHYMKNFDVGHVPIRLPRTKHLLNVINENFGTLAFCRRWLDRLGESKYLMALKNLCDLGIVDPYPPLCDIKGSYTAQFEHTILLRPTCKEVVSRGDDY

Take `O=C1CCC(N2C(=O)c3cccc(NCCOCCOCCOCCOCCOCCNC(=O)c4cc5cc(N6CCC(O)(C(=O)NCc7cc(F)cc(F)c7)C6=O)ccc5[nH]4)c3C2=O)C(=O)N1` (stereo not drawn) [Compound A1, 5-[3-[(3,5-difluorophenyl)methylcarbamoyl]-3-hydroxy-2-oxo-pyrrolidin-1-yl]-N-[2-[2-[2-[2-[2-[2-[[2-(2,6-dioxo-3-piperidyl)-1,3-dioxo-isoindolin-4-yl]amino]ethoxy]ethoxy]ethoxy]ethoxy]ethoxy]ethyl]-1H-indole-2-carboxamide]: the “Signal MetAp2/GAPDH normalized to untreated (DMSO)” value (“Signal MetAp2/GAPDH normalized” below) at MetAP-2 [1] (0.1 μM) was 0.7; at MetAP-2 [1] (1 μM), 0.6; at MetAP-2 [1] (10 μM), 0.3; on MetAP-2 [2] (0.1 μM, 6 hrs), 1.3; at MetAP-2 [2] (1 μM, 6 hrs), 0.9; at MetAP-2 [2] (1 μM, 48 hrs) it was 1.2. In addition, the “Signal MetAp2/GAPDH normalized” value came to 0.9 at MetAP-2 [2] (10 μM, 6 hrs) and 0.3 on MetAP-2 [2] (10 μM, 48 hrs). Besides, the “reduction of MetAP-2 protein” value is given as 30% at MetAP-2 [1] (0.1 μM); 70% at MetAP-2 [1] (10 μM); 15% at MetAP-2 [2] (1 μM, after 6 h); 40% at MetAP-2 [2] (1 μM, after 24 h); 10% at MetAP-2 [2] (10 μM, after 6 h); 70% on MetAP-2 [2] (10 μM, after 48 h).

Turning to `O=C1CCC(N2C(=O)c3ccc(NCCOCCOCCOCCOCCNC(=O)c4cc5cc(N6CCC(O)(C(=O)NCc7cc(F)cc(F)c7)C6=O)ccc5[nH]4)cc3C2=O)C(=O)N1` (stereo not drawn) [Compound A2, 5-[3-[(3,5-difluorophenyl)methylcarbamoyl]-3-hydroxy-2-oxo-pyrrolidin-1-yl]-N-[2-[2-[2-[2-[2-[[2-(2,6-dioxo-3-piperidyl)-1,3-dioxo-isoindolin-5-yl]amino]-ethoxy]ethoxy]ethoxy]ethoxy]ethyl]-1H-indole-2-carboxamide], the “Signal MetAp2/GAPDH normalized” value is 1.2 at MetAP-2 [1] (0.1 μM); 1.0 at MetAP-2 [1] (1 μM); 0.6 on MetAP-2 [1] (10 μM); 1.3 on MetAP-2 [2] (0.1 μM, 6 hrs); 1.6 on MetAP-2 [2] (1 μM, 6 hrs); 1.5 at MetAP-2 [2] (1 μM, 48 hrs). Moreover, the “Signal MetAp2/GAPDH normalized” value stood at 1.1 on MetAP-2 [2] (10 μM, 6 hrs) and 0.8 at MetAP-2 [2] (10 μM, 48 hrs). The “reduction of MetAP-2 protein” value was determined as 40% on MetAP-2 [1] (10 μM) and 20% at MetAP-2 [2] (10 μM, after 48 h).
